Each block holds one compound with its values, some of them ahead of it.
Experiments:
[1] = Pharmacokinetics and bioavailability in male mice after a single dose; type: in vivo
ALK2 (ACVR1) = ALK2 (ACVR1) (Homo sapiens (Human), UniProt Q04771); assay: In vitro kinase assay (33P ATP), ALK2; type: biochemical; conditions: 10 μM ATP; read-out: Inhibition of ALK2 (IC50 μM)
p-SMAD2 = p-SMAD2 inhibition, Western Blot Analysis in MDA-MB-231 cells treated with TGFβ; type: cell-based; conditions: Homo sapiens, TGFβ 2 ng/mL, samples run in triplicate; for inhibition at 0.1 µM: 0.1 μM compound, read-out: Average p-SMAD2 inhibition @ 0.1 μM (% Inh); for inhibition at 0.5 µM: 0.5 μM compound, read-out: Average p-SMAD2 inhibition @ 0.5 μM (% Inh)
[2] = Plasma and brain concentrations at 0.5 and 1 h; type: in vivo, mice; conditions: PO

Sequence of ALK2 (ACVR1) (Q04771 21-509): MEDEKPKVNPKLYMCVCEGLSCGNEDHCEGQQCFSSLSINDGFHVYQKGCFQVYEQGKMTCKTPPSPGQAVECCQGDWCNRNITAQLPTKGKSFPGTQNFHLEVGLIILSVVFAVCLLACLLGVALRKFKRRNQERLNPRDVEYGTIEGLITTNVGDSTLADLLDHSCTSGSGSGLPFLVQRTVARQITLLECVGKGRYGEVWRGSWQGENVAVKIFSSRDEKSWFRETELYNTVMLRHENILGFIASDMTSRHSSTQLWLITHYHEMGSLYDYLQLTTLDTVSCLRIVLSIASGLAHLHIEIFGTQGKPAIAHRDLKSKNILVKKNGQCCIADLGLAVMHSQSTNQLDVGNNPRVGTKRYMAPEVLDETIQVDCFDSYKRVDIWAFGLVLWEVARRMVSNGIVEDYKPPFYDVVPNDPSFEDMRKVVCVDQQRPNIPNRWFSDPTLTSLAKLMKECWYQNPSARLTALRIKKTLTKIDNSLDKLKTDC

- AUClast ([1]; Intravenous, 2 mg/kg): 2.56 µM·h
- CL ([1]; Intravenous, 2 mg/kg): 12.8 mL/min/kg
- AUClast ([1]; Oral, 10 mg/kg): 10.5 µM·h
SMILES: C=C(C)c1cnc(-c2cc(Cl)ccc2F)cc1Nc1ccncc1C(=O)NCC(C)O (single isomer, unassigned) [Compound 3a]

SMILES: COc1cnc(-c2cc(Cl)ccc2F)cc1Nc1ccncc1C(=O)NCC(C)O (single isomer, unassigned) [Compound 13a]
- IC50 (ALK2 (ACVR1)): > 100 µM

SMILES: CC(C)c1cnc(-c2cc(Cl)ccc2F)cc1Nc1n[nH]cc1C(=O)NC[C@H](C)O (single isomer, unassigned) [Compound 21a, 3-[[2-(5-chloro-2-fluoro-phenyl)-5-isopropyl-4-pyridyl]amino]-N-(2-hydroxypropyl)-1H-pyrazole-4-carboxamide]
- inhibition at 0.1 µM (p-SMAD2): 4.67%
- inhibition at 0.5 µM (p-SMAD2): 7.67%

- AUClast ([1]; Intravenous, 2 mg/kg): 1.11 µM·h
- CL ([1]; Intravenous, 2 mg/kg): 66 mL/min/kg
- AUClast ([1]; Oral, 10 mg/kg): 0.907 µM·h
SMILES: C=C(C)c1c(Nc2ccncc2C(=O)NCC(C)O)cc(-c2cc(Cl)ccc2F)nc1N (single isomer, unassigned) [Compound 23a]

SMILES: CC(C)c1cnc(-c2cc(Cl)ccc2F)cc1Nc1ccncc1CNC[C@H](C)O [Compound 5a, (S)-1-((4-(2-(5-chloro-2-fluorophenyl)-5-isopropylpyridin-4-ylamino)pyridin-3-yl)methylamino)propan-2-ol]
- inhibition at 0.1 µM (p-SMAD2): 14.3%
- inhibition at 0.5 µM (p-SMAD2): 41.3%

SMILES: C=C(C)c1cnc(-c2cc(Cl)ccc2F)cc1Nc1ccncc1C(=O)N[C@H](C)CO [Compound 7b, (2R)-4-[[2-(5-chloro-2-fluoro-phenyl)-5-isopropenyl-4-pyridyl]amino]-N-(2-hydroxy-1-methyl-ethyl)pyridine-3-carboxamide]
- IC50 (ALK2 (ACVR1)): > 100 µM

SMILES: C=Cc1cnc(-c2cc(Cl)ccc2F)cc1Nc1ccncc1C(=O)NC[C@H](C)O [Compound 10a, (S)-4-(2-(5-chloro-2-fluorophenyl)-5-vinylpyridin-4-ylamino)-N-(2-hydroxypropyl) nicotinamide]
- inhibition at 0.5 µM (p-SMAD2): 64.3%

- Brain Concentration (μM) ([2]; 0.5 h): BLQ
- Brain Concentration (μM) ([2]; 1 h): BLQ
SMILES: CC(C)c1cnc(-c2cc(Cl)ccc2F)cc1Nc1ccncc1C(=O)NCCN [Compound 19, N-(2-aminoethyl)-4-[[2-(5-chloro-2-fluoro-phenyl)-5-isopropyl-4-pyridyl]amino]pyridine-3-carboxamide]

SMILES: C=C(C)c1cnc(-c2cc(Cl)ccc2F)cc1Nc1n[nH]cc1C(=O)NC[C@H](C)O [Compound 20a, (S)-3-[[2-(5-chloro-2-fluoro-phenyl)-5-isopropenyl-4-pyridyl]amino]-N-(2-hydroxypropyl)-1H-pyrazole-4-carboxamide]
- inhibition at 0.1 µM (p-SMAD2): 0%
- inhibition at 0.5 µM (p-SMAD2): 3.67%

Reference: US10501436B2, “Compounds and methods of use” (Medivation Technologies LLC, priority 2014, dated 2019)
